Data reported in US9962372B2, “Pharmaceutical composition for the treatment of mycosis” (priority 2015, dated 2018).
Like-named read-outs stand apart in the source and are kept apart here.

Tests used:
C. albicans ATCC® 10231 = test: Broth dilution method: MIC and synergy; assay type: cell-based, Candida albicans; settings: for MIC: RPMI-1640, 35° C., 48 h; for MIC in combination with benzydamine: in combination with benzydamine 0.125 mg/ml
Description: (§1) Candida strains stored at −80° C. were thawed and streaked on SDA plate and then a second subculture was performed. Then, Candida strains suspensions were prepared as follows.
(§2) 10 ml of saline were placed in a 50 ml falcon tube with 5 g of glass beads. Loopful of the cells of the colonies of the second subculture were transferred into the saline and suspended by rubbing the loop against the wet wall of the tube to dislodge the cells. The tube was then shacked for 3 minutes using a mechanical shaker.
(§3) The number of cells in the suspension was adjusted from 1.5×10^6 to 5.0×10^6 colony forming units (CFU)/ml using saline according to Mc Farland standard No. 0.5 standard and reading the optical density at 550 nm.
(§4) For counting, serially 1:10 dilutions were prepared using saline, to obtain 10^−4 and 10^−5 dilutions of the suspension. A sample of 100 μl of each dilution was spread plate and incubated at 37° C. for 48 h.
(§5) The methodology used for the broth dilution method was similar to that disclosed in “EUCAST Definitive Document EDef 7.1: method for the determination of broth dilution MICs of antifungal agents for fermentative yeasts” (Clin Microbiol Infect 2008; 14: 398-408).
(§6) Then, serial 1:2 dilutions were prepared in DMSO, to concentrations from 10.0 mg/ml to 0.078 mg/ml. These solutions were further diluted 1:100 in RPMI-1640 (GiBCO® by Life Technologies) containing 2% glucose, 3-(N-morpholino) propanesulfonic acid (MOPS, by SIGMA) without NaHCO3, to final concentration from 100 μg/ml to 0.78 μg/ml.
as §6, with “from 1.250” for “from 10.0”, “to 0.0196” for “to 0.078”, “from 12.50” for “from 100”, “to 0.196” for “to 0.78”
as §6, with “from 5.0” for “from 10.0”, “to 0.3125” for “to 0.078”, “from 50” for “from 100”, “to 3.125” for “to 0.78”
(§7) Benzydamine was dissolved in water to a concentration of 25 mg/ml. Then, serial 1:2 dilutions were prepared in water, to concentrations from 25 mg/ml to 3.125 mg/ml. 1 ml of each solution was added to 24 ml (1:25 dilution) of RPMI-1640 (GiBCO® by Life Technologies) containing 2% glucose, 3-(N-morpholino) propanesulfonic acid (MOPS, by SIGMA) without NaHCO3, to final concentration from 1 mg/ml to 0.125 mg/ml.
As positive control Amphotericin B from a stock solution of 1600 μg/ml was diluted in DMSO to solutions having concentrations from 200 μg/ml to 50 μg/ml. These solutions were diluted 1:100 in RPMI-1640 (GiBCO®, by Life Technology) containing 2% glucose, 3-(N-morpholino) propanesulfonic acid (MOPS, by SIGMA) without NaHCO3, to concentrations from 2 μg/ml to 0.5 μg/ml.
(§8) (B) For synergy studies, further solutions of econazole, miconazole, clotrimazole and fluconazole nitrate having concentrations from 100 μg/ml to 0.049 μg/ml were prepared in RPMI-1640 as disclosed in paragraph 1.3.1(A).
(§9) Also, further solutions of benzydamine having concentrations from 1 mg/ml to 0.25 mg/ml were prepared in RPMI-1640 as disclosed in paragraph 1.3.1(A). Moreover, the solution of benzydamine with a concentration of 1 mg/ml was further diluted 1:1.43 with RPMI-1640 to concentration of 0.7 mg/ml.
(§10) Microdilution plates containing wells with a nominal capacity of about 300 μL/well were used.
(§11) The Candida strains suspensions prepared as described in paragraph 1.1 were grown on Sabouraud's agar medium SDA (Oxoid). Colonies were diluted in phosphate-buffered saline (PBS) and suspensions were adjusted to approximately 1-5×10^5 CFU/ml using Mc Farland 0.5 standard and reading the optical density at 550 nm.

[1] = test system: C. albicans ATCC® MYA-427; test: Broth dilution method: MIC and synergy; assay type: cell-based, Candida albicans; settings: for MIC: Candida albicans, active ingredient alone, RPMI-1640, 35° C., 48 h; for MIC in combination with benzydamine: in combination with benzydamine 0.125 mg/ml
Description: as §1, §2, §3, §4, §5, §6, §7, §8, §9, §10, §11
(§12) (A) For the calculation of the MIC, microdilution plates containing in each well 100 μl of each solution of the active ingredients obtained as described in paragraph 1.3.1(A) were prepared. The wells were then inoculated with 100 μl of Candida strains suspensions obtained as disclosed above containing 1-5×10^5 CFU/ml.
(§13) In each well, the final inoculum density and the final concentration of the active ingredients was half of that used (i.e. the final inoculum density was 0.5-2.5×10^5 CFU/ml, the concentration of econazole and miconazole was from 50 μg/ml to 0.39 μg/ml, the concentration of clotrimazole was from 6.25 μg/ml to 0.098 μg/ml, the concentration of fluconazole was from 50 μg/ml to 3.125 μg/ml and the concentration of benzydamine was from 0.5 mg/ml to 0.0625 mg/ml).
(§14) The microdilution plates were incubated for 48 hours at 35° C.
(§15) (B) For synergy studies, microdilution plates containing in each well 50 μl of each solution of econazole and miconazole and 50 μl of each solution of benzydamine, obtained as disclosed in paragraph 1.3.1(B), were prepared. Then, the wells were inoculated with 100 μl of the 1-5×10^5 CFU/ml Candida suspensions. […]

[2] = test system: C. albicans ATCC® MYA-574 fluconazole resistant; test: Broth dilution method: MIC and synergy; assay type: cell-based, Candida albicans; settings: for MIC: Candida albicans, active ingredient alone, RPMI-1640, 35° C., 48 h
Description: as §1, §2, §3, §4, §5, §6, §7, §8, §9, §10, §11, §12, §13, §14, §15

[3] = test system: C. lusitaniae ATCC® 34449; test: Agar dilution method: MIC and synergy (FIC); assay type: cell-based, Candida lusitaniae; settings: for MIC: Clavispora lusitaniae, ATCC34449, active ingredient alone, agar dilution, Sabouraud agar, 35° C., 48 h, complete inhibition of growth
Description: Candida strains stored at -80° C. were thawed and streaked on SDA plate and then a second subculture was performed. Then, Candida strains suspensions were prepared as follows. 10 ml of saline were placed in a 50 ml falcon tube with 5 g of glass beads. Loopful of the cells of the colonies of the second subculture were transferred into the saline and suspended by rubbing the loop against the wet wall of the tube to dislodge the cells. The tube was then shacked for 3 minutes using a mechanical shaker. The number of cells in the suspension was adjusted from 1.5×10^6 to 5.0×10^6 colony forming units (CFU)/ml using saline according to Mc Farland standard No. 0.5 standard and reading the optical density at 550 nm. For counting, serially 1:10 dilutions were prepared using saline, to obtain 10^-4 and 10^-5 dilutions of the suspension. A sample of 100 μl of each dilution was spread plate and incubated at 37° C. for 48 h. […] The methodology was similar to that disclosed by R. Moody et al., “In Vitro Activities of Miconazole, Miconazole Nitrate, and Ketoconazole Alone and Combined with Rifampin against Candida spp. and Torulopsis glabrata Recovered from Cancer Patients.”, Antimicrobial Agents and Chemotherapy: 1980, 17, 871-875. Standard Petri dishes (92 mm diameter×16 mm height) were used. After the agar was poured, plates were allowed to cool and then immediately used. […] All the Petri dishes were incubated at 35° C. for 48 h. (B) For synergy studies, the surface of each Petri dish prepared as described in paragraph 1.2.1(B) was inoculated with four spots (20 μl inoculum volume) of the Candida strains suspensions prepared as described in paragraph 1.1, and incubated at 35° C. for 48 hours. The lowest concentration of drug that produced a complete inhibition of growth for a certain Candida strain was regarded as the minimal inhibitory concentration (MIC) for said strain. […] The synergistic effect of the combinations comprising benzydamine and econazole nitrate was evaluated by calculating the fractional inhibitory concentration (FIC), in accordance with […]. et al. in Antimicrobial Agents and Chemotherapy, February 2010, p. 602-609. […] FIC[combination b+e]=[…]] is the fractional inhibitory concentration of benzydamine with respect to a specific Candida strain, calculated as the ratio between the MIC of benzydamine in the presence of a sub-MIC amount of econazole (MIC(b+e)) and the MIC of benzydamine alone (MIC(b)), as follows: FIC[e] is the fractional inhibitory concentration of econazole with respect to a specific Candida strain, calculated as the ratio between the MIC of econazole in the presence of a sub-MIC amount of benzydamine (MIC(e+b)) and the MIC of econazole alone (MIC(e)), as follows: […]

C. tropicalis ATCC® 750 = test: Broth dilution method: MIC and synergy (FIC); assay type: cell-based, Candida tropicalis; settings: for MIC: RPMI-1640, 35° C., 48 h; for MIC in combination with benzydamine: in combination with benzydamine 0.175 mg/ml
Description: as §1, §2, §3, §4, §5, §6
as §6, with “from 1.250” for “from 10.0”, “to 0.0196” for “to 0.078”, “from 12.50” for “from 100”, “to 0.196” for “to 0.78”
as §6, with “from 5.0” for “from 10.0”, “to 0.3125” for “to 0.078”, “from 50” for “from 100”, “to 3.125” for “to 0.78”
as §7, §8, §9, §10, §11, §12

[4] = Candida albicans, ATCC10231, active ingredient alone, read-out: MIC
[5] = Candida tropicalis, ATCC750, active ingredient alone, read-out: MIC

C[C@@H]1[C@H](O)[C@@H](C)/C=C/C=C/C=C/C=C/C=C/C=C/C=C/[C@H](O[C@@H]2O[C@H](C)[C@@H](O)[C@H](N)[C@@H]2O)C[C@@H]2O[C@](O)(C[C@@H](O)C[C@@H](O)[C@H](O)CC[C@@H](O)C[C@@H](O)CC(=O)O[C@H]1C)C[C@H](O)[C@H]2C(=O)O [Amphotericin B]
MIC (C. albicans ATCC® 10231; active ingredient alone): 0.5 µg/mL

CN(C)CCCOc1nn(Cc2ccccc2)c2ccccc12 [Benzydamine]
MIC [1]: 500 µg/mL | MIC [2]: 500 µg/mL | MIC of benzydamine in combination with econazole ([2]; in combination with econazole): 125 µg/mL | MIC of benzydamine in combination with miconazole ([2]; in combination with miconazole): 62.5 µg/mL | MIC (C. albicans ATCC® 10231; [4]): 500 µg/mL | MIC [3]: 500 µg/mL | FIC[b] (fractional inhibitory concentration of benzydamine) ([3]; MIC of benzydamine in presence of sub-MIC econazole / MIC of benzydamine alone): 0.25 | MIC (C. tropicalis ATCC® 750; [5]): 500 µg/mL

Clc1ccc(COC(Cn2ccnc2)c2ccc(Cl)cc2Cl)cc1 (stereo not drawn) [Econazole nitrate]
MIC [1]: 25 µg/mL | MIC in combination with benzydamine [1]: 1.56 µg/mL | MIC [2]: 25 µg/mL | MIC in combination with benzydamine [2]: 12.5 µg/mL | MIC (C. albicans ATCC® 10231; [4]): 25 µg/mL | MIC in combination with benzydamine (C. albicans ATCC® 10231): 3.125 µg/mL | MIC [3]: 1.56 µg/mL | FIC[e] (fractional inhibitory concentration of econazole) ([3]; MIC of econazole in presence of sub-MIC benzydamine / MIC of econazole alone): 0.0628 | MIC (C. tropicalis ATCC® 750; [5]): 12.5 µg/mL | MIC in combination with benzydamine (C. tropicalis ATCC® 750): 1.56 µg/mL

Clc1ccc(COC(Cn2ccnc2)c2ccc(Cl)cc2Cl)c(Cl)c1 (stereo not drawn) [Miconazole nitrate]
MIC [1]: 25 µg/mL | MIC in combination with benzydamine [1]: 0.78 µg/mL | MIC [2]: 50 µg/mL | MIC in combination with benzydamine [2]: 12.5 µg/mL | MIC (C. albicans ATCC® 10231; [4]): 6.25 µg/mL | MIC in combination with benzydamine (C. albicans ATCC® 10231): 1.56 µg/mL | MIC (C. tropicalis ATCC® 750; [5]): 6.25 µg/mL | MIC in combination with benzydamine (C. tropicalis ATCC® 750): 0.78 µg/mL

Clotrimazole nitrate
MIC (C. albicans ATCC® 10231; active ingredient alone): 0.025 µg/mL | MIC (C. tropicalis ATCC® 750; active ingredient alone): 6.25 µg/mL | MIC in combination with benzydamine (C. tropicalis ATCC® 750): 0.098 µg/mL

Fluconazole nitrate
MIC (C. albicans ATCC® 10231; active ingredient alone): 3.125 µg/mL | MIC (C. tropicalis ATCC® 750; active ingredient alone): 50 µg/mL | MIC in combination with benzydamine (C. tropicalis ATCC® 750): 6.25 µg/mL
